Read-outs that look alike come from different tables or passages of the source.
Experiments:
[1] = tested on: asthmatic mice (ovalbumin-sensitized and ovalbumin-challenged); type: in vivo, Balb/cJ mice; settings: chronic treatment 7 days, 20 mg/kg (metoprolol 3x daily s.c., timolol in chow), versus historical controls
[2] = target: T1, β2-adrenergic receptor (Mus musculus, UniProt P18762); assay: β-adrenergic receptor density by radioligand binding (ICYP) in lung membranes of treated asthmatic mice; settings: for Kd: KD of radioligand ICYP in lung membranes, not of the drug, read-out: Apparent KD (in parentheses) (converted); for Bmax (receptor density): lung membranes
T1 construct: rows headed: Apparent KD (in parentheses); other: 15 Minutes of drug treatment; KD of radioligand ICYP in lung membranes, not of the; Bmax (receptor density); lung membranes; Apparent KD (in parentheses); other: 28 Days of drug treatment; KD of radioligand ICYP in lung membranes, not of the dr
T1 sequence (P18762 whole entry): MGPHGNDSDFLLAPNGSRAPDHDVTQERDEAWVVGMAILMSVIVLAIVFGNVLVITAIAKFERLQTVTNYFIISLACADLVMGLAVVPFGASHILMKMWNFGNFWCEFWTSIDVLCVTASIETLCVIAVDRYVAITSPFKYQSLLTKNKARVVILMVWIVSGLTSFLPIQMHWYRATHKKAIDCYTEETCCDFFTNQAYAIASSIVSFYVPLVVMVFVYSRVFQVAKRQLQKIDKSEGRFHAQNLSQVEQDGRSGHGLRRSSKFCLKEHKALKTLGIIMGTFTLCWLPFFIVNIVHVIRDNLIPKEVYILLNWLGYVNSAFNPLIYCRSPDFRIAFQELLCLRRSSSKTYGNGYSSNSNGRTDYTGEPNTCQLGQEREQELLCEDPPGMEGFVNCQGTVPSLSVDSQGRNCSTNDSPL

[3] = tested on: β-arrestin pathway; assay: Block of the β-arrestin pathway; settings: FIG. 13
[4] = cited from earlier work
[5] = Pharmacokinetics of inhaled and oral airway drugs (literature); type: in vivo, humans; settings: 6 children with asthma versus 11 healthy adults
[6] = tested on: Phospholipase C (PLC-β1); assay: Ratio of phospholipase C to actin by immunoblotting in cultured tracheal smooth muscle cells; type: cell-based; settings: cells from asthmatic mice, chronic nadolol high dose treatment
Description: Cultured tracheal smooth muscle cells were obtained from mice exposed to the following treatments: NS/NC=nonasthmatic, non-challenged mice; S/C=asthmatic mice; Sal.Ac=asthmatic mice, acute salbutamol treatment; Sal.Ch=asthmatic mice, chronic salbutamol treatment; Nad.Ac=asthmatic mice, acute nadolol high dose treatment; and Nad.Ch=asthmatic mice, chronic nadolol high dose treatment.
After airway function experiments, the tracheas were surgically removed from anesthetized mice that had been treated with drugs or vehicle. The tracheas were minced and the cells plated and grown in culture. The smooth muscle cells grow faster and take over the culture dish. The cells were grown in medium which contained the drugs used in the treatment or vehicle controls. Phospholipase C (PLC-(β1) was determined by immunoblotting with an antibody specific for the enzyme. Actin was used as a loading control and the amount of PLC-β1 was expressed as a ratio of phospholipase C to actin.

[7] = tested on: mucous metaplasia; assay: Mucous metaplasia in sensitized/challenged mice (photomicrographs); type: in vivo; settings: sensitized/challenged mice after treatment
Description: FIG. 9 is a photomicrograph showing the occurrence of a mucus plug in the bronchus of a child with fatal asthma.

[8] = tested on: mucin 5AC; assay: Level of mucin 5AC in smokers, nadolol versus placebo; type: in vivo, human; settings: P<0.05
[9] = tested on: cAMP accumulation; assay: cAMP accumulation
[10] = cited from earlier work; remark: listed apart in the source

Row | Compound | Kd ([2]; 15 Minutes of drug treatment) [nM] | Kd ([2]; 28 Days of drug treatment) [nM] | Bmax (receptor density) ([2]; 28 Days of drug treatment) | block of the β-arrestin pathway [3] | other results
1 | CC(C)(C)NC[C@H](O)COc1nsnc1N1CCOCC1 [timolol] | – | – | – | – | airway hyperresponsiveness (Raw) [1]: effective in reducing airway hyperresponsiveness
2 | COc1ccccc1OCCNCC(O)COc1cccc2[nH]c3ccccc3c12 (stereo not drawn) [carvedilol] | 0.565 | 1.44 | 904.1 ± 43.46 femtomoles of sites per milligram of protein | did not block the β-arrestin pathway | –
3 | COCCc1ccc(OCC(O)CNC(C)C)cc1 (stereo not drawn) [metoprolol] | – | – | – | – | airway hyperresponsiveness (Raw) [1]: effective in reducing airway hyperresponsiveness
4 | CC(C)NCC(O)COc1cccc2ccccc12 (stereo not drawn) [propranolol] | – | – | – | did not block the β-arrestin pathway | –
5 | CC(C)(C)NCC(O)c1cc(O)cc(O)c1 (stereo not drawn) [terbutaline] | – | – | – | – | bioavailability with the oral component (swallowed fraction of the dose) added ([4]; from an MDI): 16.5%; mean pulmonary bioavailability ([4]; from an MDI): 9.1%
6 | CCCC1O[C@@H]2C[C@H]3[C@@H]4CCC5=CC(=O)C=C[C@]5(C)[C@H]4[C@@H](O)C[C@]3(C)[C@]2(C(=O)CO)O1 (stereo partly drawn) [budesonide] | – | – | – | – | plasma clearance of the two enantiomers per kilogram of bodyweight, excess in children over adults [5]: about 50%; elimination half-life ([4]; in vivo): 2.8 ± 1.1 h; plasma clearance ([4]; in vivo): 84 ± 27 L/h
7 | CC(C)(C)NCC(O)c1ccc(O)c(CO)c1 (stereo not drawn) [salbutamol] | – | – | 97.0 ± 23.02 femtomoles of sites per milligram of protein | – | –
8 | CC(C)(C)NCC(O)COc1cccc2c1CC(O)C(O)C2 (stereo not drawn) [nadolol] | 0.695 | 1.59 | 785.5 ± 154.8 femtomoles of sites per milligram of protein | blocks this pathway | ratio of phospholipase C (PLC-β1) to actin [6]: significantly decreases the activity of phospholipase C; mucous metaplasia [7]: nearly complete elimination of mucous metaplasia; level of mucin 5AC [8]: reduces the accumulation of the mucus-associated protein mucin 5AC; cAMP accumulation [9]: not associated with cAMP accumulation; lipid solubility [10]: low lipid solubility
9 | C=CCc1ccccc1OCC(O)CNC(C)C (stereo not drawn) [alprenolol] | 0.454 | 0.291 | 179.2 ± 53.05 femtomoles of sites per milligram of protein | did not block the β-arrestin pathway | mucous metaplasia [7]: no improvement in mucous metaplasia
